Measurements taken from ChEMBL document CHEMBL3507680, “University of Dundee, Gates Library screen for HepG2 cell viability”.

Experiment: Human HepG2 cell viability assay in 384 well format
Format: toxicity, cell-based
Set-up: dose 125 nL, time 70.5 hour; cytotoxicity at 70.5 h: concentration not given beside the values
Details: HepG2 cells, read-out: Inhibition

| Structure (SMILES) | cytotoxicity at 70.5 h [%] |
| --- | --- |
| CCn1c(C)cc(C(=O)N2C[C@@H](C(=O)O)[C@H](c3ccccc3C)C2)c1C | -8.47 |
| CC(C(=O)N1CCc2ccccc2C1)N(C)Cc1cscn1 (configuration not stated) | -4.2 |
| N#Cc1ccc(S(=O)(=O)Nc2cnn(C3CCOCC3)c2)cc1 | -1.54 |
| Cc1ccc(N2C[C@H](C(=O)NCC3CC3)[C@@H]3CCO[C@@H]3C2)nn1 | -9.32 |
| Cc1cccc(C(=O)N2C[C@H](NS(C)(=O)=O)[C@@H]3OCCC[C@@H]32)n1 | -10.2 |
| Cc1nn(C)c(C)c1C1CCCN1CC(=O)Nc1cccnc1 (configuration not stated) | 23.1 |
| CC(=O)Nc1ccc(-c2ccccc2CCN)cc1 | -4.46 |
| CCc1ccc(C(=O)N2CCN(CC(O)CC)CC2)o1 (configuration not stated) | 46.5 |
| O=C(c1cccc(-n2cnnn2)c1)N1CCC2(CC1)OCCO2 | -7.02 |
| Cc1ccc(O)c(C(=O)N2CCC(CNC(=O)OC(C)(C)C)C2)c1 (configuration not stated) | -7.45 |
| Cc1cccc(-c2noc([C@@H]3C[C@@H](O)CN3Cc3ccc(CO)o3)n2)c1 | 0.167 |
| COc1cc(F)c(CN2CC[C@@](O)(C3CC3)[C@H](C)C2)cc1OC | -3.1 |
| Cc1cnn(C(C)C2CC2)c1NC(=O)c1ccc(Cn2cnnn2)cc1 (configuration not stated) | -10.2 |
| CCCn1ccnc1CN1CCCC1c1cccc(-n2ccnc2)n1 (configuration not stated) | 11 |
| CCOC(=O)c1cc(C(C)(O)CCC=C(C)C)on1 (configuration not stated) | -9.61 |
| CCCc1nnc2sc(C3CCN(CCOC)CC3)nn12 | -3.34 |
| O=C(NCC1CC1)[C@H]1C[C@@H]2[C@@H](C1)OCCN2Cc1cccnc1 | 25 |
| Cc1nc(C)n(CC2CCCN2CC(=O)NCCc2ccsc2)n1 (configuration not stated) | 3.16 |
| CCCN(CCc1ccccn1)C(=O)CCc1cnn(C)c1 | -10.1 |
| COc1cc(C(=O)N2CC3(CCNCC3)c3cc(Cl)ccc32)ccn1 | -6.87 |
| CCc1ccc(C(=O)N2CCN(CCS(C)(=O)=O)CC2)o1 | -14.1 |
| CC(=O)N1CCc2c(nc(N(C)C)nc2N(C)CCC2CCCCO2)C1 (configuration not stated) | 11.3 |
| CC1(C)CC(N2CCN(C3CCCC3)C(CCO)C2)CC(C)(C)C1 (configuration not stated) | -8.65 |

| Structure (SMILES) | cytotoxicity at 70.5 h [%] |
| --- | --- |
| CCn1cnnc1CNC(=O)N1CCN(Cc2ccco2)CC1 | 1.5 |
| CC(CO)(NC(=O)Nc1nncs1)C1CCCCC1 (configuration not stated) | 2.4 |
| Cc1cc(C)c(S(=O)(=O)NCCC(=O)NCc2ccoc2)c(C)c1 | 3.02 |
| CNc1nc(N2CCN(C3CCCCC3)C(CCO)C2)nc2c1CCC2 (configuration not stated) | -3.63 |
| COc1ccc(CCN(C)CCS(=O)(=O)c2ccc(Cl)cc2)cc1OC | -13.8 |
| CC(C)N1CC(c2ccnc(Nc3nccs3)n2)C1 | -10.4 |
| Cn1cccc1CNCc1nnc2n1CCCC2C(F)(F)F (configuration not stated) | -5.37 |
| CN(Cc1cnc(N)nc1)C(=O)c1coc(COc2cccc(F)c2)n1 | 0.199 |
| CCN1CC2(CCC1=O)CCN(C(=O)C(O)c1cccc(Cl)c1)CC2 (configuration not stated) | -7.18 |
| O=C(NCc1ccccc1)N1CCC2(CC(=O)N(c3ccsc3)C2)C1 (configuration not stated) | -2.89 |
| COc1c(Br)c(CC2CC(CO)=NO2)c(Br)c2c1OCO2 (configuration not stated) | -7.56 |
| CC(C)(C)CN1CCC(c2nnc(Cn3ccnc3)n2C2CC2)CC1 | -3.87 |
| Cc1cc(CN(C)C(=O)c2ccc(OCC(F)(F)F)nc2)no1 | 0.93 |
| COc1cccc(N2CCN(C(=O)C(O)c3cccc(Cl)c3)CC2=O)c1 (configuration not stated) | 6.54 |
| COCc1ccccc1NC(=O)CCNC(=O)c1ccoc1 | -13.1 |
| Cc1noc([C@]23COC[C@H]2CN(C(=O)C2CCOCC2)C3)n1 | -4.92 |
| O=S1(=O)NC2(CCCN(Cc3ccc(Cl)cc3)C2)COc2ccccc21 (configuration not stated) | 22.5 |
| CCOc1ccccc1C(=O)NCc1nncn1C1CC1 | 3.5 |
| CC(=O)N1CC(=O)N(c2cnn(C)c2)CC12CCN(Cc1ccoc1)C2 (configuration not stated) | 1.31 |
| CC(=O)Nc1nc(C(=O)NCc2ccc(N3CCCC3)nc2)cs1 | -7.65 |
| Cc1ccc(S(=O)(=O)NC(=O)CCc2ccccc2)cc1N(C)C | -5.27 |
| CC(C)N(C)C(=O)CN1CCCC(c2ccc(C(=O)O)cc2)C1 (configuration not stated) | 32.3 |
| Cc1nc(N2CCC(O)(c3ccccc3)CC2)c2c(C)nn(C)c2n1 | -3.33 |

| Structure (SMILES) | cytotoxicity at 70.5 h [%] |
| --- | --- |
| Cc1nc(CN2CCO[C@@H]3CN(Cc4ccccn4)CC[C@@H]3C2)cs1 | -6.11 |
| CC(C)N(Cc1ccccn1)C(=O)CCC(=O)c1ccccc1 | -7.32 |
| Cc1nc(C(=O)N2CCC(c3nccn3Cc3ccncc3)CC2)cs1 | -5.72 |
| O=c1[nH]ncc(NCCOc2ccc3c(c2)OCO3)c1Cl | -8.71 |
| c1cc(CN2CCC3(CC2)COC(COCC2CC2)C3)co1 (configuration not stated) | -20.3 |
| O=C(CCc1cc(F)ccc1F)NS(=O)(=O)c1ccc2c(c1)OCCO2 | 0.522 |
| CCC1c2ccsc2CCN1C(=O)NCc1cc[nH]n1 (configuration not stated) | -1.24 |
| CC(C)(C)c1ncc(CNCC2CCCn3ccnc32)s1 (configuration not stated) | -4.17 |
| OCc1ccc(CNc2ccccc2CN2CCC(O)CC2)o1 | -4.84 |
| Fc1ccc(CNC2CCN(CCc3ccncc3)CC2)cc1F | -3.84 |
| Cc1n[nH]c2nc(-c3cc(Br)ccc3O)cc(C(=O)O)c12 | 8.54 |
| CC1CS(=O)(=O)CCN1CCCc1ccc(C(F)(F)F)cc1 (configuration not stated) | -10.6 |
| O=C(c1cc[nH]n1)N1CCCC1c1cc(Nc2ccccn2)n[nH]1 (configuration not stated) | -11.2 |
| CNS(=O)(=O)CCCN1CCCCCC1c1ccc(C)o1 (configuration not stated) | -11 |
| CCn1ccc(-c2cc(C(=O)O)n3nc(C(F)(F)F)c(Br)c3n2)n1 | -3.3 |
| Cc1cnn(CC2CN(Cc3cccc(OCC(N)=O)c3)CCO2)c1 (configuration not stated) | -5.97 |
| COc1cc(NC(=O)c2cc(C)sc2C)c(C(=O)N(C)C)cc1OC | -19.4 |
| c1cnc(N2CCOCC3(C2)CN(c2nccs2)CCO3)nc1 (configuration not stated) | -7.1 |
| COCCN1CCCN(C(=O)c2oc(C)nc2C)CC1 | -7.73 |
| Cc1ccc(C(=O)N2CCC3(CC2)CN(CCN(C)C)C(=O)O3)c(F)c1 | 7.08 |
| c1ccc(-n2nc(CNC3CCc4ncnn4C3)c3c2CCC3)cc1 (configuration not stated) | 9.35 |
| CCN(Cc1c(F)cccc1F)Cn1nc(C)c2c(C)onc2c1=O | 2.01 |
| Cc1nccc(C2CCCN(S(=O)(=O)N3CCOCC3)C2)n1 (configuration not stated) | 19.2 |

| Structure (SMILES) | cytotoxicity at 70.5 h [%] |
| --- | --- |
| CC(NC(=O)Nc1ccc(N2CCCC2)nc1)c1nncn1C (configuration not stated) | 5.27 |
| Cc1ccc(CN2CCC3(CC2)C(=O)NCCN3CC2CC2)o1 | 8.52 |
| CC(C)c1nccn1C1CCCN(C(=O)c2ccsc2)C1 (configuration not stated) | -2.65 |
| CCn1c(NCc2ccc(OC)cc2)nc2c(C)nn(C)c2c1=O | -6.73 |
| O=C(C1CCOCC1)N1C[C@H]2CCC[C@@]2(COc2cccnc2)C1 | -1.29 |
| CC(O)CN1CC2(CCC1=O)CCN(C(=O)c1cnn(C)c1)CC2 (configuration not stated) | -1.73 |
| Cc1nnc(N2CC[C@H]3C[C@H](C(=O)N4CCOCC4)O[C@H]3C2)s1 | -2.02 |
| Cc1cc(C)n(CC2CCCN2CCS(=O)(=O)c2ccccc2)n1 (configuration not stated) | -24.2 |
| CC(=O)N1CCCCCC1C1CCN(Cc2nnc(C(C)(C)C)o2)CC1 (configuration not stated) | -5.64 |
| c1cnc(N2CCCC3(CCN(Cc4ccncc4)C3)C2)nc1 (configuration not stated) | -13.2 |
| CNc1ccnc(N2CCCC(C(=O)c3ccccn3)C2)n1 (configuration not stated) | 24.1 |
| Cc1noc(-c2ccc(N3CCN(Cc4ncccc4C)CC3)nc2)n1 | -7.47 |
| COc1ccc(C(C(=O)O)N(C)Cc2c(C)nn(C)c2C)c(C)c1 (configuration not stated) | -10 |
| Cc1ccc(F)cc1NC(=O)CCn1cncn1 | -8.38 |
| Cc1cccc2c1NC1(CCCC1)NC2=O | -13.5 |
| O=C(c1cccc(F)c1)N(CCCO)S(=O)(=O)c1cccs1 | -8.04 |
| CC(C)N1[C@H](Cn2cccn2)C[C@@H]2CN(Cc3ccoc3)CC[C@@H]21 | -13.4 |
| c1ccc(-c2ncn(CCCN3CCOCC3)c2-c2ccncc2)cc1 | -6.69 |
| O=C(CCn1ccc2ccccc21)N1CCN(Cc2cccnc2)CC1 | 17.7 |
| CC(C)CNC[C@H]1O[C@H](Cc2cc(-c3ccccn3)on2)CC[C@@H]1O | 0.841 |
| CC(NC(=O)CCCc1ccc(Cl)cc1)c1n[nH]c(=O)[nH]1 (configuration not stated) | -0.585 |
| CCSc1nnc(CCNC(=O)OC(C)(C)C)o1 | 13 |
| CC(C)CSCCCNC(=O)C1CCC1 | -2.26 |

| Structure (SMILES) | cytotoxicity at 70.5 h [%] |
| --- | --- |
| O=C(NCC1CC1)c1cc2c(s1)CCN2C(=O)c1ccc(F)cc1 | -9.03 |
| CCCOCC(=O)N1CCc2c(cccc2S(=O)(=O)N2CCOCC2)C1 | 19.4 |
| C1CC(CN2C[C@H]3CC[C@@H]2CN(Cc2noc(C4CCCC4)n2)C3)C1 | 22.2 |
| Cc1cc(C)n(C(=O)Cn2nc(C)c(I)c2C)n1 | -7.22 |
| CCS(=O)(=O)N1CCC2(CCN(CC(=O)N(C)C)C2=O)CC1 | -1.33 |
| CC(C)NC(=O)N1CCOC2(CCCNC2)C1 (configuration not stated) | 4.28 |
| COc1ccccc1OCCN(C)c1cc(C)nc(N)n1 | 18.7 |
| CCc1ccc(CN(CCN(C)C)Cc2ccc(C)s2)nc1 | -5.3 |
| COc1ccc(CN2CCn3cc(CN4CCN(C)CC4)nc3C2)cc1 | -7.16 |
| CN([C@@H]1CC[C@@H](N2CCCC2)[C@@H]1O)S(=O)(=O)c1ccccc1 | 24.7 |
| c1nc2c(c(NCCCn3cncn3)n1)CCN(CC1CCOC1)CC2 (configuration not stated) | -2.03 |
| c1ncc2c(n1)CN(Cc1cn3ccsc3n1)CC2 | -4.44 |
| O=C1C(N2CCN(c3ccccc3Cl)CC2)CCN1C1CCOCC1 (configuration not stated) | -5.64 |
| COCC1CC2(CCN(Cc3nccn3C)CC2)CN1c1ncccn1 (configuration not stated) | -0.457 |
| CCCNC(=O)c1cccc(CNCc2csc(C(C)(C)C)n2)c1 | -44.8 |
| Cc1c(C(N)=O)sc2nc(C(F)(F)F)ccc12 | 19.9 |
| O=C1CO[C@H]2CN(Cc3cccnc3)C[C@H]2N1 | -1.16 |
| c1ccc2c(c1)COC1(CCCC1)N2 | 22.7 |
| COc1cccc(CC(=O)N2CCCC(c3n[nH]c4nccnc34)C2)c1 (configuration not stated) | -10.4 |
| Cc1cc(C(=O)N2CCCN(c3nccs3)CC2)c(C)n1C(C)C | 29.5 |
